Results reported in PubChem BioAssay (NCI).
Several values for one entry are separate records, joined by “and”; a condition that tells them apart may be missing. Equal values may be shown once.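 Following 48 hours of exposure in 96-well plates, responses at five concentrations were used to interpolate endpoints linearly. Here, GI50 denotes the concentration required for 50% inhibition of growth. Definition used: TGI = concentration required for complete inhibition of growth.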

Columns and labels:
Experiment in all cases: growth of human tumour cells (NCI), 48 h
[1] = system: SF-539 CNS
[2] = system: SK-OV-3 ovarian
[3] = system: UO-31 renal
[4] = system: SF-268 CNS
[5] = system: RPMI-8226 leukemia
[6] = system: A498 renal
[7] = system: NCI-H522 lung
[8] = system: TK-10 renal
[9] = system: T-47D breast
[10] = system: OVCAR-5 ovarian

SMILES	TGI [1]	TGI [2]	TGI [3]	TGI [4] [µM]	TGI [5] [µM]	TGI [6]	TGI [7] [µM]	TGI [8] [µM]	TGI [9] [µM]	TGI [10]	GI50 [1]	GI50 [2]	GI50 [3] [µM]	GI50 [4] [µM]	GI50 [6]	GI50 [7] [µM]	GI50 [8] [µM]	GI50 [9]	GI50 [10] [µM]
O=C(CC(Cl)=C(Cl)Cl)c1ccccc1	> 100 µM	> 100 µM	> 100 µM	> 100	41.9	> 100 µM	69.6	> 100	> 100	> 100 µM	–	–	–	–	–	–	–	–	–
O=C(N/N=C/c1ccccc1)c1cccc2nc3ccccc3nc12	> 100 µM	> 100 µM	> 100 µM	> 100	> 100	> 100 µM	> 100	> 100	> 100	> 100 µM	–	–	–	–	–	–	–	–	–
CCOP(=O)(OCC)OC1c2[nH]cc(C(=O)OCc3ccccc3)c2-c2cc(C(=O)OC)[nH]c2C1OC (stereo unspecified)	> 43.7 µM	58 µM	> 59.1 µM	> 96	> 100	> 100 µM	29.1	> 39.9	24	> 96.1 µM	–	–	–	–	–	–	–	–	–
CCOC(=O)c1c(NC(=S)Nc2ccccc2)sc2c1CCOC2	> 100 µM	> 100 µM	> 100 µM	> 100	> 100	> 100 µM	> 100	> 100	> 100	> 100 µM	–	–	–	–	–	–	–	–	–
COc1ccc2nc3cccc([N+](=O)[O-])c3c(NCCCO)c2c1	0.00518 µM and 0.0418 µM	0.184 µM and 0.563 µM	0.00749 µM and 0.0237 µM	–	0.219	0.0435 µM and 0.0788 µM	0.00662	–	–	0.0177 µM and 0.0148 µM	0.00141 µM and 0.0132 µM	0.0375 µM and 0.0452 µM	0.0017	0.00101	0.017 µM and 0.0275 µM	0.00165	0.00188	0.0292 µM and 0.136 µM	0.00181
CC(=O)OC(Cc1c(O)c2c(C)cccc2oc1=O)C(C)(C)O (stereo unspecified)	> 100 µM	> 100 µM	> 100 µM	> 100	> 100	> 100 µM	> 100	> 100	> 100	> 100 µM	–	–	–	–	–	–	–	–	–
CC(=O)Oc1ccc2c3c1O[C@H]1[C@H](O)CC[C@@]4(O)[C@@H](C2)N(C)CC[C@]314	> 100 µM	> 100 µM	> 100 µM	> 100	> 100	> 100 µM	> 100	> 100	> 100	> 100 µM	–	–	–	–	–	–	–	–	–
N#Cc1c(O)c(/C=N/c2ncccn2)c(=O)n2c1[nH]c1ccccc12	> 100 µM	> 100 µM	> 100 µM	> 100	> 100	> 100 µM	> 100	> 100	> 100	> 100 µM	–	–	–	–	–	–	–	–	–
CC1C(C#N)(C#N)C(C#N)=C(N)C1(Cl)[N+](=O)[O-] (stereo unspecified)	25.2 µM	32.6 µM	29.4 µM	28.7	39.8	31.5 µM	6.1	28.2	42.7	29.6 µM	–	–	–	–	–	–	–	–	–
O=C(NNC(=O)c1csc(NC(=S)NC2CCCCC2)n1)c1ccccc1	31.6 µM	34.2 µM	28.3 µM	> 100	69.9	76.2 µM	28.4	85.6	17.3	76.3 µM	–	–	–	–	–	–	–	–	–
O=C(c1ccccc1)N1C(=S)N(c2ccccn2)C(=Nc2ccccc2)C1=Nc1ccccc1	44.9 µM	> 86.6 µM	27.1 µM	> 100	31.1	> 100 µM	5.61	88.2	> 62.1	> 44.3 µM	–	–	–	–	–	–	–	–	–
CC1(C)[C@@H]2C[C@H]1c1cnc(-c3ccccn3)cc1C2CCCCC[C@@H]1c2cc(-c3ccccn3)ncc2[C@@H]2C[C@H]1C2(C)C (stereo partly specified)	0.456 µM	> 100 µM	> 22.2 µM	> 100	19.6	8.92 µM	> 100	> 100	> 100	> 100 µM	–	–	–	–	–	–	–	–	–
CCOc1cc2c(c(OCC)c1O)CC[C@@H]1[C@@H]2CC[C@]2(C)[C@@H](O)CC[C@@H]12	6.71 µM	57.5 µM	79.3 µM	52.1	31.1	41.6 µM	23.1	> 100	54.3	> 100 µM	–	–	–	–	–	–	–	–	–
COC(=O)CCC(NC(=O)OC(C)(C)C)C(=O)NC(Cc1ccc(NC(=O)CCCC(C)=O)cc1)C(=O)NC(CCC(=O)OC)C(=O)OC (stereo unspecified)	> 100 µM	> 100 µM	> 100 µM	> 100	> 100	> 100 µM	> 100	> 100	> 100	> 100 µM	–	–	–	–	–	–	–	–	–
O=C(Nc1ccc(Cl)cc1)c1cc(S(=O)(=O)Nc2nnc3c(Cl)cc(C(F)(F)F)cn23)c(S)cc1Cl	> 100 µM	> 100 µM	> 100 µM	> 100	> 100	86.3 µM	> 100	> 100	> 100	> 100 µM	–	–	–	–	–	–	–	–	–
O=C(c1ccc(Cl)cc1)N(C(=S)OCCOc1ccccc1)c1ccccc1	34 µM	> 100 µM	3.12 µM	60.4	44.1	48 µM	43.7	> 100	56.5	36.4 µM	–	–	–	–	–	–	–	–	–
